Measured values reported in ChEMBL document CHEMBL1201862, “PubChem BioAssay data set” (2004).
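Five compound concentrations were applied to cells in 96-well plates for 48 hours; endpoints were derived by simple linear interpolation of the resulting dose-response curve. Here, GI50 denotes the concentration required for 50% inhibition of growth.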 Activity calls are given as the source filed them. No stated cut-off is given here; in the data, active = GI50 up to about 1.1 µM and inactive = higher.

Legend:
Experiment in all cases: DTP human tumour cell line panel, 48 h
[1] = system: NCI-H522
[2] = system: SNB-19
[3] = system: OVCAR-5
[4] = system: RXF 393
[5] = system: SF-268
[6] = system: A549
[7] = system: T47D
[8] = system: HL-60
[9] = system: OVCAR-3
[10] = system: M14
[11] = system: 786-0
[12] = system: DU-145
[13] = system: NCI-H460
[14] = system: OVCAR-8
[15] = system: Hs-578T
[16] = system: SN12C
[17] = system: MOLT-4
[18] = system: HCT-15
[19] = system: IGROV-1
[20] = system: RPMI-8226
[21] = system: K562
[22] = system: CAKI-1
[23] = system: OVCAR-4
[24] = system: CCRF-CEM
[25] = system: ACHN
[26] = system: A498
[27] = system: SF-295
[28] = system: PC-3
[29] = system: SF-539
[30] = system: HCC 2998
[31] = system: NCI/ADR-RES
[32] = system: SNB-75
[33] = system: MDA-MB-435
[34] = system: COLO 205
[35] = system: LOX IMVI
[36] = system: MDA-MB-231
[37] = system: SK-MEL-28
[38] = system: SR
[39] = system: UACC-62
[40] = system: NCI-H226
[41] = system: SK-MEL-2
[42] = system: SW-620
[43] = system: HOP-92
[44] = system: BT-549
[45] = system: UO-31
[46] = system: MCF7
[47] = system: Malme-3M
[48] = system: U-251
[49] = system: KM12
[50] = system: SK-MEL-5
[51] = system: EKVX
[52] = system: TK-10
[53] = system: UACC-257
[54] = system: HCT-116
[55] = system: HT-29
[56] = system: NCI-H23
[57] = system: HOP-62
[58] = system: MDA-N
[59] = system: SK-OV-3

Q: `C=C(C)[C@@H]1CCC2=C[C@H](C/C(C)=C\C3=CC(C)=C(O3)[C@H]1O)OC2=O` was tested. Which GI50 [1] did it give?
A: Its GI50 is 68.5 µM (inactive).

Q: And the GI50 [2]?
A: Its GI50 is > 100 µM (inactive).

Q: What about the GI50 [3] of the same molecule?
A: The GI50 was > 100 µM (inactive).

Q: And the GI50 [4]?
A: The GI50 was 35.6 µM (inactive).

Q: What about the GI50 [5] of the same molecule?
A: The GI50 was > 100 µM (inactive).

Q: And the GI50 [6]?
A: The GI50 was 88.7 µM (inactive).

Q: And the GI50 [7]?
A: Its GI50 is 41.9 µM (inactive).

Q: What about the GI50 [8] of the same molecule?
A: The GI50 was > 100 µM (inactive).

Q: And the GI50 [9]?
A: The GI50 was > 100 µM (inactive).

Q: And the GI50 [10]?
A: Its GI50 is > 100 µM (inactive).

Q: And the GI50 [11]?
A: Its GI50 is 35.2 µM (inactive).

Q: And the GI50 [12]?
A: Its GI50 is > 100 µM (inactive).

Q: And the GI50 [13]?
A: Its GI50 is > 100 µM (inactive).

Q: What about the GI50 [14] of the same molecule?
A: Its GI50 is 73.8 µM (inactive).

Q: What about the GI50 [15] of the same molecule?
A: Its GI50 is 65.5 µM (inactive).

Q: What about the GI50 [16] of the same molecule?
A: Its GI50 is 71.8 µM (inactive).

Q: What about the GI50 [17] of the same molecule?
A: The GI50 was > 100 µM (inactive).

Q: And the GI50 [18]?
A: Its GI50 is over 100 µM.

Q: And the GI50 [19]?
A: The GI50 was 93.1 µM (inactive).

Q: What about the GI50 [20] of the same molecule?
A: Its GI50 is > 100 µM (inactive).

Q: And the GI50 [21]?
A: Its GI50 is > 100 µM (inactive).

Q: And the GI50 [22]?
A: The GI50 was > 100 µM (inactive).

Q: What about the GI50 [23] of the same molecule?
A: Its GI50 is 60 µM (inactive).

Q: What about the GI50 [24] of the same molecule?
A: Its GI50 is > 100 µM (inactive).

Q: And the GI50 [25]?
A: Its GI50 is 57.5 µM (inactive).

Q: And the GI50 [26]?
A: Its GI50 is > 100 µM (inactive).

Q: And the GI50 [27]?
A: The GI50 was 80.9 µM (inactive).

Q: What about the GI50 [28] of the same molecule?
A: The GI50 was 73.8 µM (inactive).

Q: And the GI50 [29]?
A: The GI50 was 48.5 µM (inactive).

Q: And the GI50 [30]?
A: Its GI50 is > 100 µM (inactive).

Q: And the GI50 [31]?
A: The GI50 was > 100 µM (inactive).

Q: And the GI50 [32]?
A: The GI50 was > 100 µM (inactive).

Q: And the GI50 [33]?
A: Its GI50 is > 100 µM (inactive).

Q: What about the GI50 [34] of the same molecule?
A: The GI50 was > 100 µM (inactive).

Q: What about the GI50 [35] of the same molecule?
A: Its GI50 is > 100 µM (inactive).

Q: And the GI50 [36]?
A: Its GI50 is 25.8 µM (inactive).

Q: And the GI50 [37]?
A: The GI50 was > 100 µM (inactive).

Q: What about the GI50 [38] of the same molecule?
A: Its GI50 is > 100 µM (inactive).

Q: And the GI50 [39]?
A: Its GI50 is 93.5 µM (inactive).

Q: What about the GI50 [40] of the same molecule?
A: The GI50 was 36.1 µM (inactive).

Q: And the GI50 [41]?
A: Its GI50 is > 100 µM (inactive).

Q: And the GI50 [42]?
A: Its GI50 is > 100 µM (inactive).

Q: What about the GI50 [43] of the same molecule?
A: The GI50 was 56.4 µM (inactive).

Q: And the GI50 [44]?
A: Its GI50 is > 100 µM (inactive).

Q: What about the GI50 [45] of the same molecule?
A: The GI50 was > 100 µM (inactive).

Q: And the GI50 [46]?
A: Its GI50 is 71.1 µM (inactive).

Q: And the GI50 [47]?
A: The GI50 was > 100 µM (inactive).

Q: What about the GI50 [48] of the same molecule?
A: Its GI50 is 49.8 µM (inactive).

Q: And the GI50 [49]?
A: Its GI50 is > 100 µM (inactive).

Q: And the GI50 [50]?
A: The GI50 was > 100 µM (inactive).

Q: And the GI50 [51]?
A: Its GI50 is > 100 µM (inactive).

Q: What about the GI50 [52] of the same molecule?
A: Its GI50 is 71 µM (inactive).

Q: What about the GI50 [53] of the same molecule?
A: Its GI50 is > 100 µM (inactive).

Q: Which GI50 [2] does the source give for `O=C(c1cccs1)N(C(=O)N1CCC(c2ccccc2)CC1)c1ccccc1` here?
A: Its GI50 is > 100 µM (inactive).

Q: What about the GI50 [3] of the same molecule?
A: Its GI50 is > 100 µM (inactive).

Q: And the GI50 [4]?
A: Its GI50 is 16.8 µM (inactive).

Q: What about the GI50 [5] of the same molecule?
A: Its GI50 is 73.6 µM (inactive).

Q: What about the GI50 [7] of the same molecule?
A: Its GI50 is 26.1 µM (inactive).

Q: What about the GI50 [8] of the same molecule?
A: Its GI50 is 28.8 µM (inactive).

Q: And the GI50 [9]?
A: Its GI50 is 53.6 µM (inactive).

Q: What about the GI50 [10] of the same molecule?
A: The GI50 was 40.6 µM (inactive).

Q: What about the GI50 [11] of the same molecule?
A: The GI50 was > 100 µM (inactive).

Q: What about the GI50 [12] of the same molecule?
A: The GI50 was > 100 µM (inactive).

Q: And the GI50 [13]?
A: The GI50 was 43.7 µM (inactive).

Q: What about the GI50 [14] of the same molecule?
A: Its GI50 is 39.4 µM (inactive).

Q: What about the GI50 [15] of the same molecule?
A: Its GI50 is 27.5 µM (inactive).

Q: What about the GI50 [16] of the same molecule?
A: The GI50 was 62.2 µM (inactive).

Q: What about the GI50 [17] of the same molecule?
A: The GI50 was 34.8 µM (inactive).

Q: And the GI50 [18]?
A: Its GI50 is 28.1 µM.

Q: What about the GI50 [54] of the same molecule?
A: The GI50 was 42.5 µM (inactive).

Q: What about the GI50 [19] of the same molecule?
A: Its GI50 is 14.7 µM (inactive).

Q: And the GI50 [20]?
A: The GI50 was 12.6 µM (inactive).

Q: And the GI50 [21]?
A: Its GI50 is 22.7 µM (inactive).

Q: What about the GI50 [55] of the same molecule?
A: Its GI50 is 25.4 µM (inactive).

Q: And the GI50 [22]?
A: Its GI50 is > 100 µM (inactive).

Q: And the GI50 [24]?
A: The GI50 was 95.5 µM (inactive).

Q: And the GI50 [25]?
A: The GI50 was 63.1 µM (inactive).

Q: What about the GI50 [56] of the same molecule?
A: The GI50 was 40.6 µM (inactive).

Q: What about the GI50 [26] of the same molecule?
A: Its GI50 is 51.4 µM (inactive).

Q: And the GI50 [27]?
A: Its GI50 is 42.7 µM (inactive).

Q: What about the GI50 [28] of the same molecule?
A: Its GI50 is 0.873 µM (active).

Q: What about the GI50 [29] of the same molecule?
A: The GI50 was > 100 µM (inactive).

Q: What about the GI50 [31] of the same molecule?
A: The GI50 was 24.8 µM (inactive).

Q: And the GI50 [33]?
A: The GI50 was 29.4 µM (inactive).

Q: What about the GI50 [34] of the same molecule?
A: The GI50 was 27.2 µM (inactive).

Q: And the GI50 [35]?
A: Its GI50 is 41.5 µM (inactive).

Q: And the GI50 [36]?
A: The GI50 was > 100 µM (inactive).

Q: And the GI50 [37]?
A: The GI50 was 43.9 µM (inactive).

Q: And the GI50 [39]?
A: Its GI50 is 50.6 µM (inactive).

Q: And the GI50 [40]?
A: Its GI50 is 34 µM (inactive).

Q: And the GI50 [41]?
A: Its GI50 is 13.8 µM (inactive).

Q: And the GI50 [42]?
A: Its GI50 is 51.5 µM (inactive).

Q: What about the GI50 [57] of the same molecule?
A: The GI50 was 36 µM (inactive).

Q: What about the GI50 [44] of the same molecule?
A: The GI50 was 27 µM (inactive).

Q: And the GI50 [45]?
A: Its GI50 is 18 µM (inactive).

Q: And the GI50 [46]?
A: The GI50 was 35.5 µM (inactive).

Q: And the GI50 [47]?
A: Its GI50 is 15.8 µM (inactive).

Q: What about the GI50 [48] of the same molecule?
A: The GI50 was 46 µM (inactive).

Q: What about the GI50 [58] of the same molecule?
A: The GI50 was 43.8 µM (inactive).

Q: And the GI50 [59]?
A: The GI50 was 88.3 µM (inactive).

Q: And the GI50 [49]?
A: The GI50 was 14.4 µM (inactive).

Q: And the GI50 [50]?
A: Its GI50 is 16.8 µM (inactive).

Q: What about the GI50 [51] of the same molecule?
A: Its GI50 is 7.67 µM (inactive).

Q: And the GI50 [52]?
A: The GI50 was 67 µM (inactive).

Q: What about the GI50 [53] of the same molecule?
A: Its GI50 is 40 µM (inactive).
